Data: US12350350B2, “Hyperpolarisation in aqueous media via sabre” (UNIVERSITY OF YORK, priority 2017, dated 2025)

Key:
[1] = Solubility in water and organic solvent (stated); details: for solubility in organic solvent: CD3Cl or CD2Cl2
[2] = UV monitoring of pz transfer from aqueous phase into chloroform, with and without NaCl; assay type: physicochemical; details: H2O layered over equivalent volume of CHCl3
Procedure: Relative rates of pz transfer from the aqueous phase into chloroform were assessed, with, and without NaCl, by UV monitoring as detailed in Figure S100. This involved layering a sample of H2O containing pyrazine over an equivalent volume of CHCl3 that contained no pz.

[3] = UV-vis quality control: catalyst in the aqueous phase after phase separation; assay type: physicochemical; details: UV spectrum 10 seconds after mixing, no signal seen
Procedure: A UV spectrum was recorded to monitor the amount of catalyst present in the aqueous phase 10 seconds after mixing. As detailed in Figure S98 no signal is seen which places an upper limit of 1.5×10^−6 mol dm^−3 on the iridium concentration based on [Ir(H)2(IMes)(pz)3]Cl. The sample used mimicked that of 5.1.

## Fc1cccnc1 [3-fluoropyridine]
[1]
  solubility in organic solvent: highly soluble in organic solvent

## Nc1ccncc1 [4-aminopyridine]
[1]
  solubility in water / D2O: fully water soluble

## [2H]c1cc([2H])c(C(=O)OC)cn1 [d2-methylnicotinate]
[1]
  solubility in water / D2O: partially soluble in D2O phase
  solubility in organic solvent: fully soluble in CD3Cl phase

## [2H]c1cc([2H])c(C(N)=O)cn1 [d2-nicotinamide]
[1]
  solubility in water / D2O: full water soluble
  solubility in organic solvent: partially soluble in organic solvent

## c1cnccn1 [pyrazine]
[2]
  rate of transfer between the phases, effect of NaCl: increase the rate of pz transfer between the phases
  relative partitioning between aqueous phase and chloroform, effect of NaCl: unaffected by added NaCl

## [Ir(H)2(IMes)(pz)3]Cl
[3]
  upper limit on iridium concentration in the aqueous phase: ≤ 1.5×10^−6 mol dm^−3
